Measurements as given in patent US7332489B2, “Methods and compositions of novel triazine compounds” (Reddy US Therapeutics, Inc., priority 2003, dated 2008).
Structures can show the parent of a compound that is named as a salt. Where two headings read alike, the source gives them in different places.

Tests used:
[1] = tested on: Human aortic smooth muscle cells; experiment: Smooth muscle cell proliferation assay / anti-proliferation assay (perlecan); settings: for Proliferation Data (result in words): screens at 5 & 10 uM; for activity in anti-proliferation assay (Perlecan), in words: using the same activity scale used in Table 3
Method: Human aortic smooth muscle cells (Clonetics) were used. Cells were grown in basal medium containing 5% fetal bovine serum supplemented with growth factors, basic fibroblast growth factor, epidermal growth factor and insulin. […] The cells were then serum starved for 24 h to induce quiescence. Fresh growth medium containing no compound or 10 μM compound was then added and further incubated for 24 h. Cell number was determined by using a cell proliferation assay kit (Celltiter96 AQueous from Promega).

TNF-α induced IL-6 = experiment: TNF-α-induced IL-6 production determined by IL-6 ELISA; format: cell-based; settings: for % IL6 production compare to TNF stimulation of IL6 (100%), Compds tested @ 10 uM HAEC, IL6: TNF stimulation = 100%; for activity at 10 µM: Homo sapiens, 24 h; for Inflammation Data (result in words): concentration not given
How it was run: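 Human aortic endothelial cells grown to ≥90% confluence, then treated with compounds and stimuli in serum-free medium with 0.2% albumin. Secreted IL-6 in collected media measured by sandwich ELISA (2 ug/ml capture, 200 ng/ml biotinylated detection antibody, streptavidin-HRP), read at 450 nm.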

[2] = Homo sapiens, read-out: Activity (note 1), anti-proliferation assay (perlecan)
[3] = Homo sapiens, read-out: Avg IC-50, anti-proliferation assay (perlecan)
[4] = Table 5, first part, class = % of control IL6 production, read-out: Inhibition of TNF-induced IL6 production
[5] = read-out: % IL6 production compare to TNF stimulation of IL6 (100%), Compds tested @ 10 uM HAEC, IL6
[6] = read-out: Inhibition of TNF-induced IL6 production
[7] = Table 5, second part, column 1, class = % of control IL6 production, read-out: Inhibition of TNF-induced IL6, production

CCN1CCC[C@@H]1CNc1nc(Nc2ccc(OC)c(F)c2)nc(NC2CCCCCC2)n1 [Compound 140, N^2-cycloheptyl-N^4-((R)-1-ethyl-pyrrolidin-2-ylmethyl)-N^6-(3-fluoro-4-methoxyphenyl)-1,3,5-triazine-2,4,6-triamine]
IC50 [1, 2]: 3 to 7 µM
IC50 [1, 3]: 4 to 5 µM
% IL6 production compare to TNF stimulation of IL6 (100%), Compds tested @ 10 uM HAEC, IL6 (TNF-α induced IL-6; HAEC, 10 uM compound): 12.57%
activity at 10 µM (TNF-α induced IL-6; [4]): 0 to 25%

COc1ccc(Nc2nc(NC3CCCCCC3)nc(OC3CCN(C)CC3)n2)cc1Cl
Proliferation Data, cell morphology (rounding, blunting, morphology change) [1]: rounding at 5 & 10 uM
Inflammation Data, cell death at 10 uM (TNF-α induced IL-6; 10 uM): total cell death

COc1ccc(Nc2nc(NC3CCCCCC3)nc(OC3CCCN(C(C)=O)C3)n2)cc1Cl (centres unmarked) [drawing 1597]
Proliferation Data (result in words) [1]: Not active at 5 & 10 uM
Inflammation Data, inhibition at 10 uM (TNF-α induced IL-6; 10 uM): complete inhibition at 10 uM

COc1ccc(Nc2nc(NC3CCCCCC3)nc(N(C)C3CCN(C)CC3)n2)cc1Br [Compound 123, N-(3-Bromo-4-methoxy-phenyl)-N′-cycloheptyl-N″-methyl-N″-(1-methyl-piperidin-4-yl)-[1,3,5]triazine-2,4,6-triamine]
IC50 [1, 2]: > 7 µM

COc1ccc(Nc2nc(NC3CCCCCC3)nc(NC3CCN(Cc4ccccc4)CC3)n2)cc1Cl [drawing 1615]
Proliferation Data, cell morphology (rounding, blunting, morphology change) [1]: cell blunting at 1 uMand rounding at 5 uM
Inflammation Data, cell death at 5 uM (TNF-α induced IL-6; 5 uM): 20%
Inflammation Data, cell death at 10 uM (TNF-α induced IL-6; 10 uM): > 50%

COc1ccc(Nc2nc(NC3CCCCCC3)nc(N(C)C3CCN(C)CC3)n2)cc1F [Compound 160, N^2-cycloheptyl-N^4-(3-fluoro-4-methoxyphenyl)-N^6-methyl-N^6-(1-methyl-piperidin-4-yl)-1,3,5-triazine-2,4,6-triamine, hydrogen chloride salt]
IC50 ([1]; read-out: Activity (note 1), anti-proliferation assay (perlecan)): 3 to 7 µM
IC50 ([1]; read-out: Avg IC-50, anti-proliferation assay (perlecan)): 4 to 5 µM
activity at 10 µM (TNF-α induced IL-6; [5]): 1%
activity at 10 µM (TNF-α induced IL-6; [6]): 0 to 25%

COc1ccc(Nc2nc(NC3CCCCCC3)nc(OCC3CCCN3)n2)cc1Cl (centres unmarked) [drawing 1599]
Proliferation Data (result in words) [1]: Not active at 5 & 10 uM

COc1ccc(Nc2nc(NC3CCCCCC3)nc(NC3CCN(Cc4ccccc4)CC3)n2)cc1F
Proliferation Data, cell morphology (rounding, blunting, morphology change) [1]: cell bluntingat 3 uM and rounding at 5 uM
Inflammation Data, cell death at 5 uM (TNF-α induced IL-6; 5 uM): 25%
Inflammation Data, cell death at 10 uM (TNF-α induced IL-6; 10 uM): total cell death

CCN1CCC[C@H]1CNc1nc(Nc2ccc(OC)c(F)c2)nc(NC2CCCCCC2)n1 [Compound 139, N^2-cycloheptyl-N^4-((S)-1-ethyl-pyrrolidin-2-ylmethyl)-N^6-(3-fluoro-4-methoxyphenyl)-1,3,5-triazine-2,4,6-triamine]
IC50 [1, 2]: 3 to 7 µM
IC50 [1, 3]: 4 to 5 µM
activity at 10 µM (TNF-α induced IL-6; [4]): 0 to 25%

COc1ccc(Nc2nc(NC3CCCCCC3)nc(N3CCCC3CO)n2)cc1Cl (centres unmarked)
Proliferation Data, cell morphology (rounding, blunting, morphology change) [1]: rounding
Proliferation Data (result in words) [1]: Did not pass 5 & 10 uMscreens
Inflammation Data (result in words) (TNF-α induced IL-6): Not Active

COc1ccc(Nc2nc(NC3CCCCCC3)nc(N3CCN(C)CC3)n2)cc1Cl
Proliferation Data, cell morphology (rounding, blunting, morphology change) [1]: blunting androunding
Proliferation Data (result in words) [1]: Did not pass 5 & 10 uMscreens
Inflammation Data, activity in words at 5 uM (TNF-α induced IL-6; 5 uM): not active
Inflammation Data, cell death at 5 uM (TNF-α induced IL-6; 5 uM): 25%
Inflammation Data, cell death at 10 uM (TNF-α induced IL-6; 10 uM): total cell death

COc1ccc(Nc2nc(NC3CCCCCC3)nc(N(C)C3CCN(C)CC3)n2)cc1F [N^2-cycloheptyl-N^4-(3-fluoro-4-methoxyphenyl)-N^6-methyl-N^6-(1-methyl-piperidin-4-yl)-1,3,5-triazine-2,4,6-triamine]
activity in anti-proliferation assay (Perlecan), in words [1]: medium or moderate activity

CCN1CCCC1CNc1nc(NCC2CCCN2CC)nc(Nc2ccc(OC)c(F)c2)n1 (centres unmarked) [Compound 70, N^2,N^4-bis[(1-ethyl-2-pyrrolidinyl)methyl]-N^6-(3-fluoro-4-methoxyphenyl)-1,3,5-triazine-2,4,6-triamine]
activity at 10 µM (TNF-α induced IL-6; [4]): 0 to 25%
activity at 10 µM (TNF-α induced IL-6; [7]): 25 to 50%

COc1ccc(Nc2nc(NC3CCCCCC3)nc(N3CCCCCC3)n2)cc1F [Compound 83, N^2-cycloheptyl-N^4-(3-fluoro-4-methoxyphenyl)-6-hexahydro-1H-azepin-1-yl-1,3,5-triazine-2,4-diamine]
activity at 10 µM (TNF-α induced IL-6; [4]): 0 to 25%

CCN1CCCC1CNc1nc(NCc2ccco2)nc(Nc2ccc(OC)c(F)c2)n1 (centres unmarked) [Compound 66, N^2-[(1-ethyl-2-pyrrolidinyl)methyl]-N^4-(3-fluoro-4-methoxyphenyl)-N^6-(2-furylmethyl)-1,3,5-triazine-2,4,6-triamine]
activity at 10 µM (TNF-α induced IL-6; [4]): 0 to 25%
activity at 10 µM (TNF-α induced IL-6; [7]): 0 to 25%

CCN(CC)c1ccc(Nc2nc(NCC3CCCN3CC)nc(NC3CCCCCC3)n2)cc1Cl (centres unmarked) [Compound 26, N^2-[3-chloro-4-(diethylamino)phenyl]-N^4-cycloheptyl-N^6-[(1-ethyl-2-pyrrolidinyl)methyl]-1,3,5-triazine-2,4,6-triamine]
cells floating (TNF-α induced IL-6; HAEC, 10 uM compound, seen in the TNF IL6 test): > 50%
activity at 10 µM (TNF-α induced IL-6; [4]): 0 to 25%

COC[C@@H]1CCCN1c1nc(Nc2ccc(OC)c(F)c2)nc(NC2CCCCCC2)n1 [Compound 86, N^2-cycloheptyl-N^4-(3-fluoro-4-methoxyphenyl)-6-[(2S)-2-(methoxymethyl)-1-pyrrolidinyl]-1,3,5-triazine-2,4-diamine]
activity at 10 µM (TNF-α induced IL-6; [4]): 0 to 25%

CN1CCC(N(C)c2nc(Nc3ccc4ccccc4c3)nc(NC3CCCCCC3)n2)CC1 [N^2-cycloheptyl-N^4-methyl-N^4-(1-methyl-piperidin-4-yl)-N^6-naphthalen-2-yl-1,3,5-triazine-2,4,6-triamine]
activity in anti-proliferation assay (Perlecan), in words [1]: high activity

CCc1occc(=O)c1Oc1nc(Nc2ccc(OC)c(Cl)c2)nc(NC2CCCCCC2)n1
Proliferation Data (result in words) [1]: Not active at 5 & 10 uM
Inflammation Data, cell death at 10 uM (TNF-α induced IL-6; 10 uM): 20%

COc1ccc(Nc2nc(NCCCCCO)nc(N(C)C3CCN(C)CC3)n2)cc1Cl [Compound 108, 5-{4-(3-Chloro-4-methoxy-phenylamino)-6-[methyl-(1-methyl-piperidin-4-yl)-amino]-[1,3,5]triazin-2-ylamino}-pentan-1-ol]
activity at 10 µM (TNF-α induced IL-6; [5]): 25%
activity at 10 µM (TNF-α induced IL-6; [6]): 25 to 50%

CCN1CCC[C@H]1CNc1nc(NCC2CCCCC2)nc(Nc2ccc(OC)c(F)c2)n1 [Compound 141, N^2-cyclohexylmethyl-N^4-((S)-1-ethyl-pyrrolidin-2-ylmethyl)-N^6-(3-fluoro-4-methoxyphenyl)-1,3,5-triazine-2,4,6-triamine]
% IL6 production compare to TNF stimulation of IL6 (100%), Compds tested @ 10 uM HAEC, IL6 (TNF-α induced IL-6; HAEC, 10 uM compound): 23.44%
activity at 10 µM (TNF-α induced IL-6; [4]): 0 to 25%

CCN1CCCC1CNc1nc(Nc2ccc(OC)c(F)c2)nc(N2CCN(c3ccccn3)CC2)n1 (centres unmarked) [Compound 73, N^2-[(1-ethyl-2-pyrrolidinyl)methyl]-N^4-(3-fluoro-4-methoxyphenyl)-N^6-[4-(2-pyridinyl)-1-piperazinyl]-1,3,5-triazine-2,4-diamine]
activity at 10 µM (TNF-α induced IL-6; [4]): 0 to 25%
activity at 10 µM (TNF-α induced IL-6; [7]): 0 to 25%

COc1ccc(Nc2nc(NC3CCCCCC3)nc(N3CCCC3)n2)cc1F [Compound 82, N^2-cycloheptyl-N^4-(3-fluoro-4-methoxyphenyl)-6-(1-pyrrolidinyl)-1,3,5-triazine-2,4-diamine]
activity at 10 µM (TNF-α induced IL-6; [4]): 25 to 50%

COc1ccc(Nc2nc(NC3CC3)nc(NC3CC3)n2)cc1F [Compound 157, N,N′-dicyclopropyl-N″-(3-fluoro-4-methoxy-phenyl)-1,3,5-triazine-2,4,6-triamine]
% IL6 production compare to TNF stimulation of IL6 (100%), Compds tested @ 10 uM HAEC, IL6 (TNF-α induced IL-6; HAEC, 10 uM compound): 60.48%
activity at 10 µM (TNF-α induced IL-6; [4]): 50 to 75%

COc1ccc(Nc2nc(NCc3ccco3)nc(NC3CCCCCC3)n2)cc1F [Compound 91, N^2-cycloheptyl-N^4-(3-fluoro-4-methoxyphenyl)-N^6-(2-furanylmethyl)-1,3,5-triazine-2,4,6-triamine]
activity at 10 µM (TNF-α induced IL-6; [4]): 25 to 50%

COc1ccc(Nc2nc(NC3CC3)nc(N(C)C3CCN(C)CC3)n2)cc1Cl
Inflammation Data, cell death at 10 uM (TNF-α induced IL-6; 10 uM): 15%
Inflammation Data (result in words) (TNF-α induced IL-6): Not active

COc1ccc(Nc2nc(NC3CCCCCC3)nc(N(C)C3CCN(C)CC3)n2)cc1F [Compound 167, N^2-cycloheptyl-N^4-(3-fluoro-4-methoxy-phenyl)-N^6-methyl-N^6-(1-methyl-piperidin-4-yl)-1,3,5-triazine-2,4,6-triamine maleate salt]
IC50 ([1]; read-out: Activity (note 1), anti-proliferation assay (perlecan), maleate salt): > 7 µM
% IL6 production compare to TNF stimulation of IL6 (100%), HAEC, IL6, @ 5 uM (TNF-α induced IL-6; HAEC, TNF stimulated, compound 5 uM (bracketed value), maleate salt): 25%

CCN1CCCC1CNc1nc(NC2CCCCCC2)nc(N(C)c2cccc(Cl)c2)n1 (centres unmarked) [Compound 45, N^2-(3-chlorophenyl)-N^4-cycloheptyl-N^6-[(1-ethyl-2-pyrrolidinyl)methyl]-N^2-methyl-1,3,5-triazine-2,4,6-triamine]
activity at 10 µM (TNF-α induced IL-6; [7]): 0 to 25%

COc1ccc(Nc2nc(NCCN3CCCCC3)nc(NC3CCCCCC3)n2)cc1F [Compound 96, N^2-cycloheptyl-N^4-(3-fluoro-4-methoxyphenyl)-N^6-[2-(1-piperidinyl)ethyl]-1,3,5-triazine-2,4,6-triamine]
activity at 10 µM (TNF-α induced IL-6; [4]): 0 to 25%
